The values that follow come from patent US20240116910A1, “Heterocycles as WIP1 Inhibitors” (PMV Pharmaceuticals, Inc., priority 2022, published 2024).

Chain of recombinant His-tag Wip1(2-420) protein (amino acids #2-420) (O15297 2-420): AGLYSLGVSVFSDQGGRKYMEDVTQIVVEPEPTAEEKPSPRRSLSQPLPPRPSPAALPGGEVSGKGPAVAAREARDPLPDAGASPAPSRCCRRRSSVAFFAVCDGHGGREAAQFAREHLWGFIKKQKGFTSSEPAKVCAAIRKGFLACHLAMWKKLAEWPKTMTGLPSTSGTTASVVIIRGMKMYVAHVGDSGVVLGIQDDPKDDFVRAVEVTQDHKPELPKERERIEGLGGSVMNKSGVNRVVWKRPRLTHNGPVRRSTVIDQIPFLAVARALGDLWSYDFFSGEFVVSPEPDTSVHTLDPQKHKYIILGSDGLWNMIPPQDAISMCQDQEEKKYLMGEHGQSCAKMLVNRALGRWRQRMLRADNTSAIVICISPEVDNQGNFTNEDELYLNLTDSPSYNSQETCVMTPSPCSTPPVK

The target in this assay is recombinant His-tag Wip1(2-420) protein (amino acids #2-420) (Homo sapiens (Human), UniProt O15297). In words: Wip1(2-420) phosphatase enzyme FDP assay. Conditions: fluorescein diphosphate (FDP) substrate, RT 2 hours, fluorescence Ex485/Em535; read-out: WIP1 (Truncated 2-420) FDP Assay: IC50. The assay is classed as biochemical. The protocol:
The Human Wip1 (2-420, aa 2-420) or Wip1 full length (aa 1-605) DNA sequence was codon optimized and synthesized by Genscript for insect cell expression. The open reading frame of Wip1(2-420) with a N-terminal-His6 affinity tag followed by a TEV cleavage site was subcloned sites into the pFastBac1 expression vector. The recombinant bacmid DNA was transfected in Sf9 insect cells for baculovirus production. After 72 hours infection, the Sf9 cells were harvested by centrifugation and resuspended in lysis buffer containing 50 mM Tris/HCl, pH 8.0, 500 mM NaCl, 20% glycerol, Benzonase 0.5% CHAPS and Roche cOmplete™ EDTA free protease inhibitors. Cells were disrupted with microfluidizer and the debris was removed by centrifugation at 185,000 g for 1 hour. The supernatant was subjected to HisTrap FF for affinity purification. Proteins were eluted with a linear gradient of 0-500 mM imidazole in HisTrap buffer containing 50 mM Tris/HCl, pH 8.0, 500 mM NaCl and 20% glycerol, 0.05% CHAPS. The eluted protein was dialyzed against dialysis buffer (20 mM MES, 100 mM NaCl, 20% glycerol, 0.5 mM TCEP, 0.05% CHAPS) followed purification via HiTrap SP HP column. The protein was eluted with a gradient of 100 mM-2 M NaCl in dialysis buffer. His6-[…] was finally concentrated and loaded onto a size-exclusion column (NiLoad 16/600 Superdex 200 pg, GE Healthcare) pre-equilibrated with 50 mM MOPS (pH 7.5), 200 mM NaCl, 20% glycerol, 1 mM TCEP, 0.05% CHAPS and 0.1 mM EGTA. The peak fractions containing purified Nis6-Wip1(2-420) were pooled and concentrated to 1.0 mg/mL and flash frozen at −80° C.
Wip1 Length and Wip1(2-420) Phosphatase Enzyme FDP Assays.
Test compounds (252 mM stock in DMSO) were diluted 3 folds in series in DMSO and 1.2 μl per well were added into 384-well polypropylene black plates (Nunc). Twelve μl per well of Assay Buffer (100 mM NaCl, 50 mM MOPS, pH 7.5, 0.8 mM CHAPS, 0.1 mM EGTA, 30 mM MgCl2, 0.3 mM TCEP, 0.2 mg/mL BSA) was added followed by […] per well of 50.4 nM recombinant His-tag Wip1 full length protein (amino acids #1-605) or recombinant His-tag Wip1(2-420) protein (amino acids #2-420) in Assay Buffer and the plate was incubated at RT (22° C.) for 5 min. Ten mM of fluorescein diphosphate (FDP) in DMSO was diluted to […] in Assay Buffer and […] per well was added to the plate and incubated at RT (22° C.) for 2 hours. […] per well of 64.1 mM EDTA in water were added to stop the enzyme reaction. The plate was centrifuged at 1,200 rpm (Eppendorf 5810R Plate centrifuge) for 1 minute and fluorescence intensity (Ex485/Em535) was measured on Perkin Elmer Victor Reader. EC50 values were calculated using either Prism (GraphPad) or ActivityBase software (IDBS), The IC50 results are provided in Table M.
For the compound `Cc1ncc(Cl)cc1N[C@@H](Cc1ccc(F)cc1)c1ccc(C(=O)N[C@@H](CC2CCCC2)C(=O)NC2CC2)s1` [Compound 223, (2S)-2-({5-[(1S)-1-[(5-chloro-2-methylpyridin-3-yl)amino]-2-(4-fluorophenyl)ethyl]thiophen-2-yl}formamido)-3-cyclopentyl-N-cyclopropylpropanamide], the IC50 came to 11 nM.

Regarding `Cc1ncc(Cl)cc1N[C@@H](c1ccc(C(=O)N[C@@H](CC2CCCC2)C(=O)NC23CC(C2)C3)s1)C(F)(F)F` [Compound 186, (2S)-N-{bicyclo[1.1.1]pentan-1-yl}-2-({5-[(1R)-1-[(5-chloro-2-methylpyridin-3-yl)amino]-2,2,2-trifluoroethyl]thiophen-2-yl}formamido)-3-cyclopentylpropanamide], the IC50 came out at 195 nM.

Take `CC(Nc1cc(Cl)cnc1C(C)(C)C#N)c1ccc(C(=O)N[C@@H](CC2CCCC2)C(=O)NC2CC2)s1` (stereo partly drawn) [Compound 192]: the IC50 was 408 nM.

`C[C@@H](Nc1cc(Cl)cnc1C(=O)O)c1ccc(C(=O)N[C@@H](CC2CCCC2)C(=O)NC2CC2)s1` [Compound 274, 5-chloro-3-{[(1R)-1-(5-{[(1S)-2-cyclopentyl-1-(cyclopropylcarbamoyl)ethyl]carbamoyl}thiophen-2-yl)ethyl]amino}pyridine-2-carboxylic acid]: the IC50 came to 811 nM.

As to `Cc1ncc(Cl)cc1N[C@@H](C)c1ccc(C(=O)N[C@@H](CC2CCCC2)C(=O)Nc2cn[nH]c2)s1` [Compound 227, (2S)-2-({5-[(1S)-1-[(5-chloro-2-methylpyridin-3-yl)amino]ethyl]thiophen-2-yl}formamido)-3-cyclopentyl-N-(1H-pyrazol-4-yl)propanamide], the 50% inhibitory concentration (IC50) stood at 8 nM.

Consider `Cc1ncc(Cl)cc1N[C@@H](C)c1ncc(C(=O)N[C@@H](CC2CCCC2)C(=O)NC23CC(C2)C3)s1` [Compound 310, (2S)-N-{bicyclo[1.1.1]pentan-1-yl}-2-({2-[(1S)-1-[(5-chloro-2-methylpyridin-3-yl)amino]ethyl]-1,3-thiazol-5-yl}formamido)-3-cyclopentylpropanamide], for which the IC50 worked out at 1020 nM.

For `Cc1ncc(Cl)cc1N[C@@H](C)c1ccc(C(=O)N[C@@H](CC2CCCCC2)C(=O)NC2CC2)s1` [Compound 107, (2S)-2-({5-[(1S)-1-[(5-chloro-2-methylpyridin-3-yl)amino]ethyl]thiophen-2-yl}formamido)-3-cyclohexyl-N-cyclopropylpropanamide], the IC50 stood at 4 nM.

Take `Cc1ncc(Cl)cc1N[C@@H](C)c1ccc(C(=O)N[C@@H](CC2CCC3CC32)C(=O)NC2CC2)s1` (stereo in doubt) [Compound 273, (2S)-3-[(2S)-bicyclo[3.1.0]hexan-2-yl]-2-({5-[(1S)-1-[(5-chloro-2-methylpyridin-3-yl)amino]ethyl]thiophen-2-yl}formamido)-N-cyclopropylpropanamide]: the IC50 is 7 nM.

For `Cc1ncc(Cl)cc1NC(C)(C)c1ccc(C(=O)N[C@@H](CC2CCCC2)C(=O)N[C@H]2C[C@H](F)C2)s1` [Compound 275, (2S)-2-[(5-{2-[(5-chloro-2-methylpyridin-3-yl)amino]propan-2-yl}thiophen-2-yl)formamido]-3-cyclopentyl-N-[(1r,3r)-3-fluorocyclobutyl]propanamide], the IC50 was 10 nM.

As to `Cc1ncc(Cl)cc1N[C@@H](Cc1ccccc1)c1ccc(C(=O)N[C@@H](CC2CCCC2)C(=O)NC23CC(C#N)(C2)C3)s1` [Compound 214, (2S)-2-({5-[(1S)-1-[(5-chloro-2-methylpyridin-3-yl)amino]-2-phenylethyl]thiophen-2-yl}formamido)-N-{3-cyanobicyclo[1.1.1]pentan-1-yl}-3-cyclopentylpropanamide], the IC50 was determined as 20 nM.

Consider `Cc1ncc(Cl)cc1N[C@@H](C)c1ccc(C(=O)N[C@H](CC2CCCC2)C(=O)Nc2ccnc(O)c2)s1` [Compound 140, (2R)-2-({5-[(1S)-1-[(5-chloro-2-methylpyridin-3-yl)amino]ethyl]thiophen-2-yl}formamido)-3-cyclopentyl-N-(2-hydroxypyridin-4-yl)propanamide], for which the IC50 came out at 402 nM.

As for `C[C@H](c1ccc(C(=O)N[C@@H](CC2CCCC2)C(=O)NC2CC2)s1)N1CCCc2ccc(Cl)cc21` [Compound 249, (2S)-2-({5-[(1R)-1-(7-chloro-1,2,3,4-tetrahydroquinolin-1-yl)ethyl]thiophen-2-yl}formamido)-3-cyclopentyl-N-cyclopropylpropanamide], the IC50 worked out at 156 nM.

Consider `COC(=O)c1ncc(Cl)cc1N[C@H](C)c1ccc(C(=O)N[C@@H](CC2CCCC2)C(=O)NC2CC2)s1` [Compound 103, methyl 5-chloro-3-{[(1R)-1-(5-{[(1S)-2-cyclopentyl-1-(cyclopropylcarbamoyl)ethyl]carbamoyl}thiophen-2-yl)ethyl]amino}pyridine-2-carboxylate], for which the IC50 turned out to be 520 nM.

As to `Cc1ncc(Cl)cc1N[C@@H](C)c1ccc(C(=O)N[C@@H](C[C@H]2CCC3CC32)C(=O)NC23CC(C2)C3)s1` (stereo partly drawn) [Compound 244, (2S)-N-{bicyclo[1.1.1]pentan-1-yl}-3-[(2R)-bicyclo[3.1.0]hexan-2-yl]-2-({5-[(1S)-1-[(5-chloro-2-methylpyridin-3-yl)amino]ethyl]thiophen-2-yl}formamido)propanamide], the IC50 came out at 5 nM.

Regarding `COC[C@@H](Nc1cc(Cl)cnc1C)c1ccc(C(=O)N[C@@H](CC2CCCC2)C(=O)NC2CC2)s1` [Compound 158, (2S)-2-({5-[(1R)-1-[(5-chloro-2-methylpyridin-3-yl)amino]-2-methoxyethyl]thiophen-2-yl}formamido)-3-cyclopentyl-N-cyclopropylpropanamide], the IC50 was determined as 1000 nM.

For `C[C@@H](Nc1cc(Cl)cnc1C(N)=O)c1ccc(C(=O)N[C@@H](CC2CCCC2)C(=O)NC23CC(C2)C3)s1` [Compound 132, 3-{[(1R)-1-(5-{[(1S)-1-({bicyclo[1.1.1]pentan-1-yl}carbamoyl)-2-cyclopentylethyl]carbamoyl}thiophen-2-yl)ethyl]amino}-5-chloropyridine-2-carboxamide], the IC50 amounted to 76 nM.

For the compound `Cc1ncc(Cl)cc1NC(Cc1cnn(C)c1)c1ccc(C(=O)N[C@@H](CC2CCCC2)C(=O)NC2CC2)s1` (stereo partly drawn) [Compound 188, (2S)-2-[(5-{1-[(5-chloro-2-methylpyridin-3-yl)amino]-2-(1-methyl-1H-pyrazol-4-yl)ethyl}thiophen-2-yl)formamido]-3-cyclopentyl-N-cyclopropylpropanamide], the IC50 is 11 nM.

On to `Cc1ncc(Cl)cc1N[C@@H](C)c1ccc(C(=O)N[C@@H](CC2CCCC2)C(=O)NCCF)s1` [Compound 271, (2S)-2-({5-[(1S)-1-[(5-chloro-2-methylpyridin-3-yl)amino]ethyl]thiophen-2-yl}formamido)-3-cyclopentyl-N-(2-fluoroethyl)propanamide], for which the IC50 is 10 nM.

For `Cc1cc(NC(=O)[C@H](CC2CCCCC2)NC(=O)c2ccc([C@H](C)Nc3cc(Cl)cnc3C)s2)ccn1` [Compound 252, (2S)-2-({5-[(1S)-1-[(5-chloro-2-methylpyridin-3-yl)amino]ethyl]thiophen-2-yl}formamido)-3-cyclohexyl-N-(2-methylpyridin-4-yl)propanamide], the IC50 was 8 nM.

`Cc1ncc(Cl)cc1N[C@@H](Cn1cccn1)c1ccc(C(=O)N[C@@H](CC2CCCC2)C(=O)NC2CC2)s1` [Compound 166, (2S)-2-({5-[(1S)-1-[(5-chloro-2-methylpyridin-3-yl)amino]-2-(1H-pyrazol-1-yl)ethyl]thiophen-2-yl}formamido)-3-cyclopentyl-N-cyclopropylpropanamide]: the IC50 is 7 nM.

`Cc1ncc(Cl)cc1N[C@@H](C)c1ccc(C(=O)N[C@@H](CC2CCCC2)C(=O)NC(C)C)s1` [Compound 84, (2S)-2-({5-[(1S)-1-[(5-chloro-2-methylpyridin-3-yl)amino]ethyl]thiophen-2-yl}formamido)-3-cyclopentyl-N-(propan-2-yl)propanamide]: the half-inhibitory concentration (IC50) is 8 nM.
